Measurements as given in patent US12411143B2, “CD146 and uses thereof as a biomarker and as a therapeutic target in the diagnosis and treatment of fibrosis” (ASSISTANCE PUBLIQUE HÔPITAUX DE MARSEILLE, priority 2018, dated 2025).

What was measured:
ECFC [1] = assay: Soluble CD146 secretion in ECFC (ELISA); format: cell-based, human; conditions: for reduction of sCD146 secretion by siRNA: 24 h TNF 20 ng/ml; for effect of siRNA on sCD146 secretion: control condition; for secretion of soluble CD146 in response to stimuli: 24 h, 20 ng/ml TNF, 20 ng/ml VEGF, 5 ng/ml TGFb, 50 ng/ml netrin, 50 ng/ml Wnt5a; for sCD146 secretion with proteinase inhibitors: IF 50 μM, TIMPs 1 μg/ml
Description: A: Secretion of soluble CD146 (CD146s) was determined in ECFC in response to 24 h of treatment with 20 ng/ml TNF, 20 ng/ml VEGF, 5 ng/ml TGFb, 50 ng/ml netrin, 50 ng/ml Wnt5a and 50 ng/ml Wnt3a.
B: The effect of the pan-inhibitor GM6001 was tested on CD146s secretion in ECFC cells by ELISA. Experiments were performed in control conditions and after treatment with 20 ng/ml TNF for 24 h. […] A dose-dependence of GM6001 effect was performed between 1 and 50 μM. Results are the mean values+/−SEM of 5 experiments.
C: The effect of furin convertase inhibitor (IF) was tested at 50 μMon CD146s secretion in control condition and after treatment with TNF 20 ng/ml for 24 h. Results are the mean values+/−SEM of 3 experiments.
D: Effect of TIMP-1, -2 and -3 (1 μg/ml) was tested on CD146s secretion in control condition and after treatment with 20 ng/ml TNF. Results are the mean values+/−SEM of 3 experiments. *: P<0.05, **: P<0.01, ***: P<0.001, experimental vs Control
A: ECFC were transfected with siRNA targeting the short (shCD146) or the long (IgCD146) isoforms of CD146 and with a control siRNA (C). Soluble CD146 (sCD146) secretion was determined. Results are the mean values+/−SEM of 4 different experiments.
B: ECFC were transfected with siRNA targeting MT1-MMP, MMP2, ADAM10 or Tace and with a control siRNA (C). Soluble CD146 (sCD146) secretion was determined. In one condition, cells were treated with GM6001 10 μM. Results are the mean values+/−SEM of 5 different experiments.
A: ECFC were transfected with siRNA targeting the short (shCD146) or the long (IgCD146) isoforms of CD146 and with a control siRNA (C) and soluble CD146 (sCD146) secretion was determined in basal condition and in cells treated for 24 h with TNF 20 ng/ml. Results are the mean values +/−SEM of 5 different experiments.
B: ECFC treated for 24 h with 20 ng/ml TNF were transfected with siRNA targeting Tace, ADAM10, MT1-MMP and with a control siRNA (C) and soluble CD146 (sCD146) secretion was determined. Results are the mean values +/−SEM of 3 different experiments.
Endothelial Colony Forming Cells (ECFC) were cultured in endothelial EGM-2 MV medium as previously described (Delorme B et al., 2005).
SiRNA designed to silence the different isoforms of sCD146 were generated. A control siRNA was also used in each experiment. siRNAs were introduced in endothelial cells using the Silence magmagnetofection kit as described by the manufacturer (OZ Biosciences).
Shed sCD146 was assayed using the commercial ELISA assay (CY-QUANT sCD146, Biocytex, Marseille). Plates were coated with specific mouse monoclonal anti-human CD146 F(ab′)2 fragments. 10 μL of sera was added to each well and incubated for 30 minutes at room temperature. After incubation, the plates were washed five times, followed by incubation with a specific HRP-coupled monoclonal antibody (7A4-HRP, 1 mg/ml, Biocytex, Marseille, France) at a 1:1 000 dilution in a specific diluent for 30 minutes at room temperature and then washed five times. 200 μL of tetramethylbenzidine (TMB) substrate was incubated for approximately 20 minutes at room temperature. The colorimetric reaction was then stopped by the addition of 100 μL of an acid solution. The intensity of the signal was directly related to the concentration of sCD146 initially contained in the sample. For detecting the two spliced isoforms of sCD146 (I5-13-sCD146 and I10-sCD146), the same immunoassay was used (Biocytex). The protocol was modified only for the second antibody (detection antibody) that was replaced by the anti-I5-13-sCD146 or anti-I10-sCD146 antibodies coupled to HRP.

ECFC [2] = assay: Permeability of ECFC monolayer to dextran-FITC; format: cell-based, human; conditions: siRNA or plasmid transfection
Description: D: ECFC were transfected with siRNA targeting ADAM10 or Tace and with a control siRNA (C). The permeability of the ECFC monolayer grown on semi-permeable filters was determined using dextran-FITC. Results are the mean values+/−SEM of 3 experiments.
E: ECFC were transfected with plasmid vectors encoding ADAM10 (p-ADAM10) or Tace (p-Tace) and with a control plasmid vector (C). The permeability of the ECFC monolayer grown on semi-permeable filters was determined using dextran-FITC. Results are the mean values+/−SEM of 3 experiments. *: P<0.05, **: P<0.01, ***: P<0.001, experimental vs Control.
ECFC were seeded at 60,000 cells per well on membrane inserts (porosity 1 μm) of a 24-multiwell double chamber system (Multiwell Insert System, BD Biosciences, Le Pont de Claix, France) after siRNA transfection or not. Confluent endothelial monolayers were then incubated for 24 h in EGM-2 medium in the presence or absence of the different forms of sCD146. The FITC-dextran (sigma) was added at the apical surface of the cells and was allowed to migrate for 1.5 h at 37° C. Basolateral FITC-dextran was then measured using a Cytofluor Series 4000 Fluorescence (PerSeptiveBiosystems, Framingham, MA).

ECFC [3] = assay: mRNA expression of sCD146 isoforms in ECFC (qPCR); format: cell-based, human; conditions: ECFC; 24 h treatment (WNT5a 15 min, WNT3a 1 h)
Description: C: The mRNA expression of I10-sCD146 and I5-13-sCD146 isoforms was analyzed by qPCR in ECFC after treatment of the cells for 24 h with the recombinant shed soluble CD146 50 ng/ml, VEGF 20 ng/ml, TNF 20 ng/ml, TGF beta 5 ng/ml, and netrin 50 ng/ml. Cells were also treated for 15 min with WNT5a 200 ng/ml and 1 h with WNT3a 50 ng/ml. Results are the mean values +/−SEM of 3 experiments. *: P<0.05, experimental vs Control.
Total cellular RNA was isolated from cells, reverse transcribed into cDNA and the resulting cDNA was subjected to qPCR.

[4] = test system: mouse ischemic hind limb model; assay: Mouse hind limb ischemia model; format: in vivo
Description: A: Ischemic mice were treated with PBS or 2 μg of rh-sCD146/rh-I10-sCD146/rh-I5-13-sCD146 or VEGF. Blood perfusion rate was monitored by laser-Doppler. Results are mean values of 6 different animals in each group and expressed as % of the control leg. *, **, ***: P<0.05, P<0.01, P<0.001, I10-sCD146 vs. PBS; $$, $$$: P<0.01, P<0.001, I5-13-sCD146 vs. PBS; ##, ###: P<0.01, P<0.001, shed sCD146 vs. PBS; £: P<0.05, VEGF vs. PBS.
B: Blood vessels examination in hind limb muscle sections from control (PBS) and shed rh-sCD146/rh-I10-sCD146/rh-I5-13-sCD146 treated animals 28 days after surgery. Vessels are labelled with isolectin B4.**, ***: P<0.01, P<0.001, experimental vs control. $: P<0.05, I10-sCD146 vs I5-13-sCD146.
C: Angiographic pictures of control (PBS) and shed sCD146/I10-sCD146/I5-13-sCD146 treated animals at D28. Pictures are representative of the 6 animals in each group. Average of the density of the vessels was expressed as right versus left leg in the different parts of the legs (calf, thigh) and in the whole leg. *, **: P<0.01, P<0.001 experimental vs PBS in calf; $: P<0.05, experimental vs PBS in thigh; #, ##: P<0.05, P<0.01, experimental vs PBS in whole leg.
In sections of muscles from ischemic mice, vascularisation was visualized with isolectin B4 (Lifetechnologies) ( 1/100). Tissue sections were examined by fluorescence microscopy (Leica sp5, Leica, Nanterre, France).
Female mice were subjected to unilateral hind limb ischemia by complete resection of the entire left femoral artery. After surgery, animals were split in four treatment groups: one control group injected in ischemic adductor muscles twice a week with PBS for 28 days; three experimental groups treated as the control groups with the three different recombinant human soluble CD146 (rh-sCD146, rh-I5-13-sCD146, rh-I10-sCD146) 2 μg.
The ratio of the ischemic versus normal hind limb blood flow was measured using a laser doppler blood flow analyzer. At different time points post-surgery (days 1, 3, 7, 14, 21 and 28), animals were subjected to 3 consecutive laser scannings over the regions of interest (leg and feet). Blood flow was expressed as the ischemic versus normal hind limb ratio.
The animals were deeply anesthetised with mix of Ketamine Xylasine (100 mg/kg and 10 mg/kg respectively) and perfused intracardially with 2 ml of lipiodole. CT 3D images were obtained with a microPET/microCT rodent model scanner (nanoPET/CTO, Mediso) with features below: 70 kVp energy, exposure time of 300 ms and 720 projections and were quantified.

[5] = control condition and TNF 20 ng/ml 24 h

CNC(=O)[C@H](Cc1c[nH]c2ccccc12)NC(=O)[C@@H](CC(=O)NO)CC(C)C [GM6001]
GM6001-dependent part of total sCD146 secretion (ECFC [1]; control condition and TNF 20 ng/ml 24 h, GM6001 1-50 μM): around 75%

ADAM10 siRNA: siRNA targeting ADAM10; sens 5′GAAUGGUAGAACAAGGUGAtt (sense GAAUGGUAGAACAAGGUGATT; antisense UCACCUUGUUCUACCAUUCCA; chemistry not given here)
reduction of sCD146 secretion by siRNA (ECFC [1]): 60% | effect of siRNA on sCD146 secretion (ECFC [1]): able to inhibit sCD146 secretion | permeability of ECFC monolayer to dextran (ECFC [2]): decreased

TGFb: stimulus of endothelial cells, 5 ng/ml [reference compound]
I5-13-sCD146 mRNA level (ECFC [3]): not modified | secretion of soluble CD146 in response to stimuli (ECFC [1]): increased

TIMP-1: TIMP used to inhibit sCD146 secretion
sCD146 secretion with proteinase inhibitors (ECFC [1]; [5]): able to reduce sCD146 secretion in both conditions

VEGF [reference compound]
I5-13-sCD146 mRNA level (ECFC [3]): not modified | I10-sCD146 mRNA level (ECFC [3]): down-regulated | secretion of soluble CD146 in response to stimuli (ECFC [1]): increased | vascularisation of muscle (isolectin B4 labelling) ([4]; 28 days after surgery, compared to PBS): vascularisation was increased | vessel density in calf, thigh and whole leg (angiography quantification) ([4]; D28, compared to PBS): significantly increased

shCD146 siRNA: siRNA targeting the short isoform of CD146; sens 5′CAGGAGAUGGAGAGAAAUACAUCGA (antisense UCGAUGUAUUUCUCUCCAUCUCCUG; chemistry not given here)
reduction of sCD146 secretion by siRNA (ECFC [1]): ~25% | effect of siRNA on sCD146 secretion (ECFC [1]): no effect

B1: Wnt5a: stimulus of endothelial cells (protein, UniProt P41221 62-380, looked up)
Protein Wnt-5a: IIGAQPLCSQLAGLSQGQKKLCHLYQDHMQYIGEGAKTGIKECQYQFRHRRWNCSTVDNTSVFGRVMQIGSRETAFTYAVSAAGVVNAMSRACREGELSTCGCSRAARPKDLPRDWLWGGCGDNIDYGYRFAKEFVDARERERIHAKGSYESARILMNLHNNEAGRRTVYNLADVACKCHGVSGSCSLKTCWLQLADFRKVGDALKEKYDSAAAMRLNSRGKLVQVNSRFNSPTTQDLVYIDPSPDYCVRNESTGSLGTQGRLCNKTSEGMDGCELMCCGRGYDQFKTVQTERCHCKFHWCCYVKCKKCTEIVDQFVCK
I5-13-sCD146 mRNA level (ECFC [3]): up-regulated | secretion of soluble CD146 in response to stimuli (ECFC [1]): increased

B2: TIMP-3: TIMP used to inhibit sCD146 secretion (protein, UniProt P35625 24-211, looked up)
Metalloproteinase inhibitor 3: CTCSPSHPQDAFCNSDIVIRAKVVGKKLVKEGPFGTLVYTIKQMKMYRGFTKMPHVQYIHTEASESLCGLKLEVNKYQYLLTGRVYDGKMYTGLCNFVERWDQLTLSQRKGLNYRYHLGCNCKIKSCYYLPCFVTSKNECLWTDMLSNFGYPGYQSKHYACIRQKGGYCSWYRGWAPPDKSIINATDP
sCD146 secretion with proteinase inhibitors (ECFC [1]; [5]): able to reduce sCD146 secretion only when the cells were treated with TNF

B3: Wnt3a: stimulus of endothelial cells (protein, UniProt P56704 19-352, looked up)
Protein Wnt-3a: SYPIWWSLAVGPQYSSLGSQPILCASIPGLVPKQLRFCRNYVEIMPSVAEGIKIGIQECQHQFRGRRWNCTTVHDSLAIFGPVLDKATRESAFVHAIASAGVAFAVTRSCAEGTAAICGCSSRHQGSPGKGWKWGGCSEDIEFGGMVSREFADARENRPDARSAMNRHNNEAGRQAIASHMHLKCKCHGLSGSCEVKTCWWSQPDFRAIGDFLKDKYDSASEMVVEKHRESRGWVETLRPRYTYFKVPTERDLVYYEASPNFCEPNPETGSFGTRDRTCNVSSHGIDGCDLLCCGRGHNARAERRREKCRCVFHWCCYVSCQECTRVYDVHTCK
I5-13-sCD146 mRNA level (ECFC [3]): not modified | I10-sCD146 mRNA level (ECFC [3]): down-regulated
